Assay: osmotic coefficient (dimensionless); mn = molality of the nth substance listed, in mol/kg
Conditions: 101 kPa, Liquid, Knauer vapor pressure osmometer

Cc1ccc(S(=O)(=O)[O-])cc1.[Na+] [sodium p-toluenesulfonate] + O
osmotic coefficient
Conditions | 313.15 K | 318.15 K | 323.15 K
m1 = 0.02 | 0.985 | 0.98 | 0.968
m1 = 0.04 | 0.964 | 0.96 | 0.956
m1 = 0.06 | 0.944 | 0.941 | 0.939
m1 = 0.08 | 0.933 | 0.931 | 0.928
m1 = 0.1 | 0.921 | 0.92 | 0.916
m1 = 0.12 | 0.911 | 0.908 | 0.904
m1 = 0.14 | 0.902 | 0.898 | 0.894
m1 = 0.15 | 0.897 | 0.895 | 0.892
m1 = 0.16 | 0.891 | 0.888 | 0.885
m1 = 0.17 | 0.888 | 0.887 | 0.882
m1 = 0.2 | 0.867 | 0.864 | 0.86
m1 = 0.22 | 0.876 | 0.873 | 0.869
m1 = 0.3 | 0.839 | 0.836 | 0.831
m1 = 0.35 | 0.806 | 0.803 | 0.8
m1 = 0.4 | 0.771 | 0.76 | 0.755
m1 = 0.45 | 0.76 | 0.756 | 0.75
m1 = 0.5 | 0.75 | 0.743 | 0.739
m1 = 0.6 | 0.72 | 0.711 | 0.696
m1 = 0.7 | 0.71 | 0.685 | 0.676
m1 = 0.8 | 0.701 | 0.683 | 0.674
